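How tested: cells in 96-well plates exposed to compound for 48 hours at five concentrations. GI50 = concentration required for 50% inhibition of growth.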 Active and inactive are the calls of the source. Rule as the data show it: active = GI50 up to about 1.1 µM and inactive = higher.
Columns and labels:
Experiment in all cases: growth of human tumour cells (NCI), 48 h
786-0 = test system: 786-0
A498 = test system: A498
A549 = test system: A549
ACHN = test system: ACHN
BT-549 = test system: BT-549
CAKI-1 = test system: CAKI-1
CCRF-CEM = test system: CCRF-CEM
COLO 205 = test system: COLO 205
DU-145 = test system: DU-145
EKVX = test system: EKVX
HCT-116 = test system: HCT-116
HCT-15 = test system: HCT-15
HL-60 = test system: HL-60
HOP-62 = test system: HOP-62
HOP-92 = test system: HOP-92
HT-29 = test system: HT-29
Hs-578T = test system: Hs-578T
IGROV-1 = test system: IGROV-1
K562 = test system: K562
KM12 = test system: KM12
LOX IMVI = test system: LOX IMVI
M14 = test system: M14
MCF7 = test system: MCF7
MDA-MB-231 = test system: MDA-MB-231
MDA-MB-435 = test system: MDA-MB-435
MDA-N = test system: MDA-N
MOLT-4 = test system: MOLT-4
Malme-3M = test system: Malme-3M
NCI-H226 = test system: NCI-H226
NCI-H23 = test system: NCI-H23
NCI-H460 = test system: NCI-H460
NCI-H522 = test system: NCI-H522
NCI/ADR-RES = test system: NCI/ADR-RES
OVCAR-3 = test system: OVCAR-3
OVCAR-4 = test system: OVCAR-4
OVCAR-5 = test system: OVCAR-5
OVCAR-8 = test system: OVCAR-8
PC-3 = test system: PC-3
RPMI-8226 = test system: RPMI-8226
RXF 393 = test system: RXF 393
SF-268 = test system: SF-268
SF-295 = test system: SF-295
SF-539 = test system: SF-539
SK-MEL-28 = test system: SK-MEL-28
SK-MEL-2 = test system: SK-MEL-2
SK-MEL-5 = test system: SK-MEL-5
SK-OV-3 = test system: SK-OV-3
SN12C = test system: SN12C
SNB-19 = test system: SNB-19
SNB-75 = test system: SNB-75
SR = test system: SR
SW-620 = test system: SW-620
T47D = test system: T47D
TK-10 = test system: TK-10
U-251 = test system: U-251
UACC-257 = test system: UACC-257
UACC-62 = test system: UACC-62
UO-31 = test system: UO-31
HCC 2998 = test system: HCC 2998

SMILES: CC(C)C(C)/C=C\C(C)C1CCC2C3=CC=C4CC(O)CCC4(C)C3CCC21C (centres undefined)
- GI50 (786-0): > 43.2 µM (inactive)
- GI50 (A498): > 85.5 µM (inactive)
- GI50 (A549): > 100 µM (inactive)
- GI50 (ACHN): > 42 µM (inactive)
- GI50 (BT-549): > 50.4 µM (inactive)
- GI50 (CAKI-1): > 43.7 µM (inactive)
- GI50 (CCRF-CEM): 19.8 µM (inactive)
- GI50 (COLO 205): 43.9 µM (inactive)
- GI50 (DU-145): 51.6 µM (inactive)
- GI50 (EKVX): > 39.4 µM (inactive)
- GI50 (HCT-116): 39.8 µM (inactive)
- GI50 (HCT-15): > 42.8 µM
- GI50 (HL-60): 32.6 µM (inactive)
- GI50 (HOP-62): > 51.1 µM (inactive)
- GI50 (HOP-92): 5.75 µM (inactive)
- GI50 (HT-29): 33.3 µM (inactive)
- GI50 (Hs-578T): > 41.3 µM (inactive)
- GI50 (IGROV-1): 31.4 µM (inactive)
- GI50 (K562): 26.5 µM (inactive)
- GI50 (KM12): > 54.8 µM (inactive)
- GI50 (LOX IMVI): > 42.7 µM (inactive)
- GI50 (M14): > 46.8 µM (inactive)
- GI50 (MCF7): 30.2 µM (inactive)
- GI50 (MDA-MB-231): > 40.6 µM (inactive)
- GI50 (MDA-MB-435): 41.1 µM (inactive)
- GI50 (MDA-N): > 46.2 µM (inactive)
- GI50 (MOLT-4): 17.7 µM (inactive)
- GI50 (Malme-3M): > 34.7 µM (inactive)
- GI50 (NCI-H226): > 38 µM (inactive)
- GI50 (NCI-H23): > 76.7 µM (inactive)
- GI50 (NCI-H460): > 36.1 µM (inactive)
- GI50 (NCI-H522): 38.6 µM (inactive)
- GI50 (NCI/ADR-RES): > 41.3 µM (inactive)
- GI50 (OVCAR-3): > 51.1 µM (inactive)
- GI50 (OVCAR-4): > 100 µM (inactive)
- GI50 (OVCAR-5): > 100 µM (inactive)
- GI50 (OVCAR-8): 29.2 µM (inactive)
- GI50 (PC-3): > 56.2 µM (inactive)
- GI50 (RPMI-8226): 29.3 µM (inactive)
- GI50 (RXF 393): > 42.5 µM (inactive)
- GI50 (SF-268): > 42.7 µM (inactive)
- GI50 (SF-295): > 64.9 µM (inactive)
- GI50 (SF-539): > 44.6 µM (inactive)
- GI50 (SK-MEL-28): > 41.7 µM (inactive)
- GI50 (SK-MEL-2): > 62.1 µM (inactive)
- GI50 (SK-MEL-5): 23.8 µM (inactive)
- GI50 (SK-OV-3): > 100 µM (inactive)
- GI50 (SN12C): > 42.1 µM (inactive)
- GI50 (SNB-19): > 74.5 µM (inactive)
- GI50 (SNB-75): > 42.8 µM (inactive)
- GI50 (SR): 34.4 µM (inactive)
- GI50 (SW-620): > 49.3 µM (inactive)
- GI50 (T47D): 81.5 µM (inactive)
- GI50 (TK-10): > 55 µM (inactive)
- GI50 (U-251): > 31.8 µM (inactive)
- GI50 (UACC-257): > 76.9 µM (inactive)
- GI50 (UACC-62): > 44.6 µM (inactive)
- GI50 (UO-31): > 48.3 µM (inactive)

SMILES: COc1cc(N(C)C)c(OC)cc1C=C1C=CC=C1
- GI50 (786-0): > 100 µM (inactive)
- GI50 (A498): > 100 µM (inactive)
- GI50 (A549): > 100 µM (inactive)
- GI50 (ACHN): > 100 µM (inactive)
- GI50 (BT-549): > 100 µM (inactive)
- GI50 (CCRF-CEM): 54.1 µM (inactive)
- GI50 (DU-145): > 100 µM (inactive)
- GI50 (EKVX): > 100 µM (inactive)
- GI50 (HCC 2998): > 100 µM (inactive)
- GI50 (HCT-116): 82.4 µM (inactive)
- GI50 (HCT-15): > 10 µM
- GI50 (HL-60): 36.4 µM (inactive)
- GI50 (HOP-62): > 100 µM (inactive)
- GI50 (HOP-92): 61.8 µM (inactive)
- GI50 (HT-29): 60.4 µM (inactive)
- GI50 (Hs-578T): > 100 µM (inactive)
- GI50 (IGROV-1): > 100 µM (inactive)
- GI50 (K562): 58.5 µM (inactive)
- GI50 (KM12): > 100 µM (inactive)
- GI50 (M14): > 100 µM (inactive)
- GI50 (MCF7): > 100 µM (inactive)
- GI50 (MDA-MB-231): > 100 µM (inactive)
- GI50 (MDA-MB-435): 43.1 µM (inactive)
- GI50 (MDA-N): 44.1 µM (inactive)
- GI50 (MOLT-4): 38.6 µM (inactive)
- GI50 (Malme-3M): > 100 µM (inactive)
- GI50 (NCI-H226): > 100 µM (inactive)
- GI50 (NCI-H23): > 100 µM (inactive)
- GI50 (NCI-H460): > 100 µM (inactive)
- GI50 (NCI/ADR-RES): 74.6 µM (inactive)
- GI50 (OVCAR-3): > 100 µM (inactive)
- GI50 (OVCAR-5): > 100 µM (inactive)
- GI50 (OVCAR-8): > 100 µM (inactive)
- GI50 (PC-3): > 100 µM (inactive)
- GI50 (RXF 393): > 100 µM (inactive)
- GI50 (SF-268): > 100 µM (inactive)
- GI50 (SF-295): > 100 µM (inactive)
- GI50 (SF-539): > 100 µM (inactive)
- GI50 (SK-MEL-28): > 100 µM (inactive)
- GI50 (SK-MEL-2): > 100 µM (inactive)
- GI50 (SK-MEL-5): > 100 µM (inactive)
- GI50 (SK-OV-3): > 100 µM (inactive)
- GI50 (SN12C): > 100 µM (inactive)
- GI50 (SNB-19): > 100 µM (inactive)
- GI50 (SR): 61.2 µM (inactive)
- GI50 (SW-620): > 100 µM (inactive)
- GI50 (T47D): 41.3 µM (inactive)
- GI50 (TK-10): > 100 µM (inactive)
- GI50 (U-251): > 100 µM (inactive)
- GI50 (UACC-62): 82.4 µM (inactive)
- GI50 (UO-31): > 100 µM (inactive)

SMILES: CC1(C)OC[C@H](COCOP2(=O)Oc3ccc4ccccc4c3-c3c(ccc4ccccc34)O2)O1
- GI50 (786-0): 35.5 µM (inactive)
- GI50 (A498): 16.9 µM (inactive)
- GI50 (A549): 21.5 µM (inactive)
- GI50 (ACHN): 18 µM (inactive)
- GI50 (BT-549): 16.6 µM (inactive)
- GI50 (CCRF-CEM): 27.6 µM (inactive)
- GI50 (DU-145): 17.6 µM (inactive)
- GI50 (EKVX): > 10 µM (inactive)
- GI50 (HCC 2998): 16.9 µM (inactive)
- GI50 (HCT-116): 15 µM (inactive)
- GI50 (HCT-15): 15.3 µM
- GI50 (HL-60): 17.1 µM (inactive)
- GI50 (HOP-62): 21.4 µM (inactive)
- GI50 (HOP-92): 14.6 µM (inactive)
- GI50 (HT-29): 16.4 µM (inactive)
- GI50 (Hs-578T): 47.5 µM (inactive)
- GI50 (IGROV-1): 23 µM (inactive)
- GI50 (K562): 21.8 µM (inactive)
- GI50 (KM12): 15.5 µM (inactive)
- GI50 (M14): 16.3 µM (inactive)
- GI50 (MCF7): 3.48 µM (inactive)
- GI50 (MDA-MB-231): 15.7 µM (inactive)
- GI50 (MDA-MB-435): 13.7 µM (inactive)
- GI50 (MDA-N): 13.5 µM (inactive)
- GI50 (MOLT-4): 15 µM (inactive)
- GI50 (Malme-3M): 21.3 µM (inactive)
- GI50 (NCI-H226): 18.7 µM (inactive)
- GI50 (NCI-H23): 15.6 µM (inactive)
- GI50 (NCI-H460): 16.7 µM (inactive)
- GI50 (NCI/ADR-RES): 18.3 µM (inactive)
- GI50 (OVCAR-3): 15.3 µM (inactive)
- GI50 (OVCAR-5): 17.8 µM (inactive)
- GI50 (OVCAR-8): 25.2 µM (inactive)
- GI50 (PC-3): 14.2 µM (inactive)
- GI50 (RXF 393): > 10 µM (inactive)
- GI50 (SF-268): 16 µM (inactive)
- GI50 (SF-295): 17.6 µM (inactive)
- GI50 (SF-539): 18.8 µM (inactive)
- GI50 (SK-MEL-28): 13.3 µM (inactive)
- GI50 (SK-MEL-5): 24.4 µM (inactive)
- GI50 (SK-OV-3): 23.8 µM (inactive)
- GI50 (SN12C): 16.4 µM (inactive)
- GI50 (SNB-19): 19.1 µM (inactive)
- GI50 (SR): 16.7 µM (inactive)
- GI50 (SW-620): 15.3 µM (inactive)
- GI50 (T47D): 18.3 µM (inactive)
- GI50 (TK-10): 20.2 µM (inactive)
- GI50 (U-251): 18 µM (inactive)
- GI50 (UACC-62): 17.2 µM (inactive)
- GI50 (UO-31): 18.3 µM (inactive)
